The results in this text go back to patent US20260374739A1, “SMALL MOLECULAR WEIGHT CHEMICAL COMPOUND TO ANTAGONIZE EPH-EPHRIN TETRAMERIZATION AND INHIBIT BIDIRECTIONAL SIGNALING” (THE BOARD OF REGENTS OF THE UNIVERSITY OF TEXAS SYSTEM, priority 2022, published 2026).

The target in assay [1] is T1, EphrinB2-EphB2 (Homo sapiens, UniProt P29323).
T1 construct: soluble human EphB1-His, EphB2-His, and EphB4-His ectodomains; commercially available human EphrinB1-Fc (EB1), EphrinB2-Fc (EB2), and EphrinB3-Fc (EB3) ectodomain proteins; purchased
T1 sequence (P29323 19-543 limits assumed): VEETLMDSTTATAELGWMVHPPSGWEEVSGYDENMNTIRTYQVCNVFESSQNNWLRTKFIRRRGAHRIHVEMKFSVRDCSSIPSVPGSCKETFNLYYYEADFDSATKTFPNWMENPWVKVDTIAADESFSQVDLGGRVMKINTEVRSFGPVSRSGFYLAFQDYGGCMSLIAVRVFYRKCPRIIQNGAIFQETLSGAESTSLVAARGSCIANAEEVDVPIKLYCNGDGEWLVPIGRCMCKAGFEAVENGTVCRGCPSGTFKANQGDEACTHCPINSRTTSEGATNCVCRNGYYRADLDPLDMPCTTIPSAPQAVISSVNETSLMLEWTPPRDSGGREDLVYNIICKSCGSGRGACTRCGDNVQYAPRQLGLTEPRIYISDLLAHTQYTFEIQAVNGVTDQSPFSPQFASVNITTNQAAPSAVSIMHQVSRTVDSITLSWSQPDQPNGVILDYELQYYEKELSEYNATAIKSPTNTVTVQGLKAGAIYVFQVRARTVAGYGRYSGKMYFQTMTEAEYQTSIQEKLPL
Nature of the assay: Octet tetramerization inhibition, immobilized human EphrinB2 binding to 50 nM soluble human EphB2. The conditions noted are these: EphrinB2-EphB2.

Another assay addresses T2, EphrinB2-EphB1 (Homo sapiens, UniProt P54762).
T2 construct: soluble human EphB1-His, EphB2-His, and EphB4-His ectodomains; commercially available human EphrinB1-Fc (EB1), EphrinB2-Fc (EB2), and EphrinB3-Fc (EB3) ectodomain proteins; purchased
T2 sequence (P54762 18-540 limits assumed): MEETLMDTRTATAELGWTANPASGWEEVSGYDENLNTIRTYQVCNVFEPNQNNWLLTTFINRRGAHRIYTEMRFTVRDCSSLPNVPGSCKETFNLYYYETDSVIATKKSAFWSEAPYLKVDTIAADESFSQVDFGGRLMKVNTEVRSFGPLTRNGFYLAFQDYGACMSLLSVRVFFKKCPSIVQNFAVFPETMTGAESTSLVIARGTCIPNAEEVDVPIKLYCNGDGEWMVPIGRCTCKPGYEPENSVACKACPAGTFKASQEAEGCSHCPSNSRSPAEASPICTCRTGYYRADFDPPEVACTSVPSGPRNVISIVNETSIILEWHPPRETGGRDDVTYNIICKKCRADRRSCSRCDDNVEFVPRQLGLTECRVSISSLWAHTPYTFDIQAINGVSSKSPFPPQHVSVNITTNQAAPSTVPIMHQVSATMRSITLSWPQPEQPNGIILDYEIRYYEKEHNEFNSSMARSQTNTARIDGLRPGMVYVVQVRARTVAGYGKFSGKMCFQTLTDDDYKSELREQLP
Nature of the assay: Octet 80 sec association/500 sec dissociation, immobilized human EphrinB2-Fc binding to soluble human EphB1-His. The conditions noted are these: for EphB1 Inhibition Percent, Inhibition of Association ONLY: at 3.2 μM and 80 seconds; for EphB1 Inhibition Percent, Inhibition of Association ONLY / EphB1 Inhibition Percent, Inhibition of Association-Dissociation: immobilized human EphrinB2, 25 nM soluble human EphB1; for EphB1 Inhibition Percent, Inhibition of Association-Dissociation: at 3.2 μM and 580 seconds. On the procedure: (§1) In another experiment, whether certain A20 analogs might have specificity for different Eph receptors was tested. An Octet RED384 system was used to obtain biophysical ON-OFF binding data (association-dissociation) for the three different human EphrinB2-EphB1, EphrinB2-EphB2, and EphrinB2-EphB4 protein-protein interactions and to assess the effect of A20 chemicals on the binding kinetics.
(§2) FIGS. 72A-72C show three example Octet sensorgram response traces for the immobilized human EphrinB2 ectodomain protein binding to soluble forms of the human EphB1, EphB2, and EphB4 ectodomain proteins, in the absence or presence of an A20 chemical (buffer conditions are always PBSTD:PBS with 0.05% Tween-20, 1% DMSO, and +/− indicated chemical). After loading EphrinB2-Fc protein to Octet AHC biosensors, washing, and obtaining stable baseline measurements in the appropriate PBSTD (either with or without indicated chemical), the sensors are placed in its buffer that also contains the indicated soluble EphB protein for the association step (0-80″), and then returned to its buffer for the dissociation step (81″-580″). In each figure (FIGS. 72A-72C), a sensorgram run using 10 μM of the 2×HCl salt form of A20-I is compared to the no compound control run to exemplify the maximum level of reduced response signal typically obtained with a potent A20 chemical.
(§3) Because the response levels during the dissociation step plateau for the EphrinB2-EphB2 and EphrinB2-EphB1 interactions by the first 80″, AUCs were also calculated for run data encompassing the first 160″ of each experiment to account for both the 80″ association data (red asterisks) and the first 80″ of dissociation data (marked by green line and asterisks).
(§4) The selectivity of another A20 analog (a 3×HCL salt form of compound BQPB4) in comparison to previously tested compound, A20-1, was tested as described in Example 27 above.
(§5) Further to the experiments listed above, a series of dose-response experiments were conducted to determine the IC50 of a selected A20 chemical (A20-1) on the kinetics of human EphrinB2 ligand ectodomain protein binding to its cognate human EphB1, EphB2, and EphB4 receptor ectodomain proteins. FIG. 74A-74C are representative sensorgrams showing the effect of 0, 0.1, 0.2, 0.4, 0.8, 1.6, and 3.2 μM, concentrations of the 2×HCl salt of A20-I along with a 10 μM max standard (also A20-1) on three different Ephrin-EphB interactions (e.g., EphB1 in FIG. 74A, EphB2 in FIG. 74B and EphB4 in FIG. 74C). […] Additional IC50 values were determined at specific timepoints, at 75″ into the association step and at 55″ into the dissociation step (135″).
(§6) All absolute and relative IC50 values are provided in the Table 6 below, where absolute are based off the full binding sensorgram traces, and relative are based off of the max control traces.
(§7) In another experiment, the % inhibition for various A20 analog chemicals against the three different EphrinB2-EphB protein interactions was determined. Specifically, the percent inhibition for immobilized human EphrinB2-Fc binding to 25 nM soluble human EphB1-His (FIG. 76A, enlarged in FIG. 76D), EphB2-His (FIG. 76B, enlarged in FIG. 76E), and EphB4-His (FIG. 76C, enlarged in FIG. 76F) with 3511-I, 8009-9255, QTM-Br, A19, A19-NO2, and IM (all at 3.2 μM) was determined.

The target of assay [2] is T1, EphrinB2-EphB2. Nature of the assay: Octet 80 sec association/500 sec dissociation, immobilized human EphrinB2-Fc binding to soluble human EphB2-His. The conditions noted are these: for EphB2 Inhibition Percent, Inhibition of Association ONLY: at 3.2 μM and 80 seconds; for EphB2 Inhibition Percent, Inhibition of Association ONLY / EphB2 Inhibition Percent, Inhibition of Association-Dissociation: immobilized human EphrinB2, 25 nM soluble human EphB2; for EphB2 Inhibition Percent, Inhibition of Association-Dissociation: at 3.2 μM and 580 seconds. On the procedure:
as §1, §2, §3, §4, §5, §6, §7

The next assay concerns the target T3, EphrinB2-EphB4 (Homo sapiens, UniProt P54760).
T3 construct: soluble human EphB1-His, EphB2-His, and EphB4-His ectodomains; commercially available human EphrinB1-Fc (EB1), EphrinB2-Fc (EB2), and EphrinB3-Fc (EB3) ectodomain proteins; purchased
T3 sequence (P54760 16-539 limits assumed): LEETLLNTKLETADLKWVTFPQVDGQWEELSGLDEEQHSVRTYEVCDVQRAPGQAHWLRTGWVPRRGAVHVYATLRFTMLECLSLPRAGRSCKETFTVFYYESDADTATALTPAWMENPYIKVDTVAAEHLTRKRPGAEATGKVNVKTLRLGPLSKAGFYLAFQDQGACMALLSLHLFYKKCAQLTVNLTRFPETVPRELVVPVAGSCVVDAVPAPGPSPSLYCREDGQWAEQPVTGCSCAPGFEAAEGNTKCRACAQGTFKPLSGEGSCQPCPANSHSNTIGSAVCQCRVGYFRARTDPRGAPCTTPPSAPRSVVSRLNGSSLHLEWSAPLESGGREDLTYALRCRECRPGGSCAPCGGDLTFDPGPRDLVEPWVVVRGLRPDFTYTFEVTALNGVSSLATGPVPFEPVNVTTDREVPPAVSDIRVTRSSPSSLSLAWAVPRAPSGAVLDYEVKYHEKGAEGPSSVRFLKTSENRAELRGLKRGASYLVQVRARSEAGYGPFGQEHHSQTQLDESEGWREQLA
Nature of the assay: Octet 80 sec association/500 sec dissociation, immobilized human EphrinB2-Fc binding to soluble human EphB4-His. On the procedure: as §1, §2, §3, §4, §5, §6, §7

[3] abbreviates: EphB1, 25 nM EphB1, 3.2 μM compound, A20-I as max control, 0* = less than 0, no inhibition.
Setting [4] is: EphB2, 25 nM EphB2, 3.2 μM compound, A20-I as max control, 0* = less than 0, no inhibition.
Where [5] appears, read: EphB4, 25 nM EphB4, 3.2 μM compound, A20-I as max control, 0* = less than 0, no inhibition.

Values joined by “and” are separate entries in the source; they are usually repeats but may differ in a detail not shown here. Equal entries are not always repeated. Marks after values point to notes of the source that are not given here.

Consider `Oc1ccc(CN2CCN(Cc3ccc(Br)cc3)CC2)c2cccnc12` [Compound 43, 5-((4-(4-bromobenzyl)piperazin-1-ium-1-yl)methyl)-8-hydroxyquinolin-1-ium chloride], for which the IC50 is 3090 nM and 3240 nM on EphrinB2-EphB2 [1] (Absolute AUC/IC50, Table A); 2700 nM and 2750 nM at EphrinB2-EphB2 [1] (Absolute Association IC50 (300 sec), Table A); 2820 nM and 3010 nM at EphrinB2-EphB2 [1] (Absolute Dissociation IC50 (450 sec), Table A); 2240 nM on EphrinB2-EphB2 [1] (Relative AUC/IC50, Table A, compound 7: association only); 1950 nM on EphrinB2-EphB2 [1] (Relative Association IC50 (300 sec), Table A); 2340 nM and 2140 nM on EphrinB2-EphB2 [1] (Relative Dissociation IC50 (450 sec), Table A). The “EphB1 Inhibition Percent, Inhibition of Association ONLY” value at EphrinB2-EphB1 was 19.9% and 33.5%. The “EphB1 Inhibition Percent, Inhibition of Association-Dissociation” value at EphrinB2-EphB1 was 36.5% and 47.3%. Also, the “EphB2 Inhibition Percent, Inhibition of Association ONLY” value at EphrinB2-EphB2 [2] is 37.8% and 62.3%. In addition, the “EphB2 Inhibition Percent, Inhibition of Association-Dissociation” value at EphrinB2-EphB2 [2] is 56.3% and 75.4%.
On to `Oc1cccc2cccnc12` [Compound 102, 8-Hydroxyquinoline, reference compound], for which, on EphrinB2-EphB1 (setting [3]), the “% Inhibition: Association + Dissociation (160 sec)” value (“% Inhibition … (160 sec)” below) is 0* % and the “% Inhibition: Association ONLY (80 sec)” value is reported as 0* %. Moreover, on EphrinB2-EphB1, the “EphB1 Inhibition Percent, Inhibition of Association ONLY” value is recorded as 0*% and the “EphB1 Inhibition Percent, Inhibition of Association-Dissociation” value was 0*%. Besides, on EphrinB2-EphB2 [2] (3.2 μM, EphB1, EphB2 and EphB4), the “inhibition of EphrinB2-EphB interactions” value was “unable to disrupt any of the EphrinB2-EphB interactions”. Also, on EphrinB2-EphB2 [2] (setting [4]), the “% Inhibition … (160 sec)” value was 0* % and the “% Inhibition: Association ONLY (80 sec)” value is given as 0* %. Further, on EphrinB2-EphB2 [2], the “EphB2 Inhibition Percent, Inhibition of Association ONLY” value is reported as 0*% and the “EphB2 Inhibition Percent, Inhibition of Association-Dissociation” value is listed as 0*%. In addition, on EphrinB2-EphB4 (setting [5]), the “% Inhibition … (160 sec)” value is recorded as 0* % and the “% Inhibition: Association ONLY (80 sec)” value is 0* %. Also, the “EphB4 Inhibition Percent, Inhibition of Association ONLY” value on EphrinB2-EphB4 (at 3.2 μM and 80 seconds, immobilized human EphrinB2, 25 nM soluble human EphB4) is given as 0*%. The “EphB4 Inhibition Percent, Inhibition of Association-Dissociation” value on EphrinB2-EphB4 (at 3.2 μM and 580 seconds, immobilized human EphrinB2, 25 nM soluble human EphB4) was 0*%.
